Measured values taken from patent US10239851B2 (priority 2014, dated 2019).
Read-outs that look alike come from different tables or passages of the source.

How the values were obtained:
[1] = test system: human prostate cancer PC-3; settings: PC-3 xenograft, nude mice, 13 mg/kg, D0 IV, single dose;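 further: PC-3 tumors were established by implanting the cells under the skin of nude mice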
From the text: Test of the inhibitory activity of the water soluble cabazitaxel derivatives on subcutaneously xenografted tumor of human prostate cancer PC-3 in nude mice: evaluating and comparing the inhibitory activity of the water soluble cabazitaxel derivatives and cabazitaxel on subcutaneously xenografted tumor of human prostate cancer PC-3 in nude mice.
Human prostate cancer PC-3 cells were subcutaneously inoculated into nude mice. After the tumor volume reached 100-150 mm^3, the animals were randomly divided into several groups, and administered with the water soluble cabazitaxel derivatives of the present invention and cabazitaxel, respectively once on the same day (D0). The tumor volume was measured 2-3 times per week, the animals were weighed and the data were recorded until day 20 (D20) after grouping.
(§1) The tumor volume (V) was calculated according to the equation: V=½×a×b^2, wherein a and b represent the length and the width, respectively.
(§2) T/C (%)=(T−T0)/(C−C0)×100, wherein T and C represent the tumor volume at the end of the experiment; and T0 and C0 represent the tumor volume at the beginning of the experiment.

[2] = rabbit plasma, 37° C.; for Sampling time/dissociation percent (%) 15 s / Sampling time/dissociation percent (%) 30 s: formula F derivatives; for Sampling time/dissociation percent (%) 15 S / Sampling time/dissociation percent (%) 30 S: formula G derivatives
Protocol: (§3) 0.1 ml samples were taken from each of the solutions, added respectively to 1 ml of blood plasma of rabbit (taken from New Zealand white rabbits, treated according to conventional methods, anticoagulated with heparin) or 1 ml of blood plasma of rat (taken from live SD rats, treated according to conventional methods, anticoagulated with heparin), homogeneously mixed, and placed in a thermostatic water bath at 37° C. for incubation with time being recorded. Samples were taken at different time points after the experiment began, and 2 ml of acetonitrile was immediately added. The samples were shaken and centrifuged for 5 min (15,000 rpm), and the supernatant was then taken for HPLC analysis.

[3] = rat plasma, 37° C.
Protocol: as §3

[4] = In vitro dissociation of the water soluble taxane derivatives in blood plasma of rat; format: in vitro ADME, SD rats; settings: 37° C.
Protocol: The obtained water soluble taxane derivatives were formulated as 0.2 mg/ml aqueous solutions. […] After 2 min, 5 min and 10 min of incubation, 0.2 ml of solutions were respectively taken from each of the samples, and added to acetonitrile (0.4 ml) cooled to −20° C. for precipitation of protein.

[5] = In vitro dissociation of the water soluble taxane derivatives in blood plasma of rabbit; format: in vitro ADME, New Zealand white rabbits; settings: 37° C.
Protocol: The obtained water soluble taxane derivatives were formulated as 0.2 mg/ml aqueous solutions. […] After 5 min, 20 min and 60 min of incubation, 0.2 ml of solutions were respectively taken from each of the samples, and added to acetonitrile (0.4 ml) cooled to −20° C. for precipitation of protein.

[6] = test system: human ovarian cancer SK-OV-3; settings: 24 mg/kg (paclitaxel 16 mg/kg) D0-4 IV
From the text: Test of the inhibitory activity of the water soluble paclitaxel derivatives on subcutaneously xenografted tumor of human ovarian cancer SK-OV-3 in nude mice: evaluating and comparing the inhibitory activity of the water soluble paclitaxel derivatives of the present invention, paclitaxel and Abraxane® on subcutaneously xenografted tumor of human ovarian cancer SK-OV-3 in nude mice.
Human ovarian cancer SK-OV-3 cells were subcutaneously inoculated to nude mice. After the tumor volume reached 100-150 mm^3, the animals were randomly divided into groups (D0), and administered with the water soluble paclitaxel derivatives of the present invention, paclitaxel, and Abraxane®, respectively once per day for 5 days. The tumor volume was measured 2-3 times per week, the animals were weighed and the data were recorded until day 22 (D22) after grouping.
as §1, §2

Compound	Sampling time/dissociation percent (%) 15 s [2] [%]	Sampling time/dissociation percent (%) 30 s [2] [%]	Sampling time/dissociation percent (%) 5 s ([3]; formula F derivatives) [%]	dissociation percent ([2]; 15 s) [%]	dissociation percent ([2]; 30 s) [%]	dissociation percent ([3]; 5 s) [%]	other results
CO[C@H]1C(=O)[C@]2(C)[C@@H](OC)C[C@H]3OC[C@@]3(OC(C)=O)[C@H]2[C@H](OC(=O)c2ccccc2)[C@]2(O)C[C@H](OC(=O)[C@H](OC(=O)[C@H](F)CCN(C)C(C)C)[C@@H](NC(=O)OC(C)(C)C)c3ccccc3)C(C)=C1C2(C)C.Cl [Compound 32, 2′-O-[4-(N-methyl-N-isopropyl)amino-2(R)-fluorobutyryl]cabazitaxel hydrochloride]							T/C (%) D20 ([1]; D20): −45%
CC(C)c1cccc(C(C)C)c1OC(=O)C(F)CCC(=O)[O-].[K+] [Compound F2, propofol 4-carboxyl-2(S)-fluorovalerate potassium salt]	73.4	94.8	92.3				
CC(C)c1cccc(C(C)C)c1OC(=O)C(F)C(=O)[O-].[Na+] [Compound F8, propofol 2-carboxyl-2(S)-fluoropropionate sodium salt]	41.2	70.4	55.5				Sampling time/dissociation percent (%) 15 s ([3]; formula F derivatives): 69.3%; Sampling time/dissociation percent (%) 30 s ([3]; formula F derivatives, sampling time 30 s): 83.3%
CC(C)c1cccc(C(C)C)c1OC(=O)[C@@H](CCN(C)C)C(F)(F)F.Cl [Compound E3, propofol 4-(N,N-dimethyl)amino-2(R)-2-trifluoromethylbutyrate hydrochloride]				51.7	67.2	77.5	
CO[C@H]1C(=O)[C@]2(C)[C@@H](OC)C[C@H]3OC[C@@]3(OC(C)=O)[C@H]2[C@H](OC(=O)c2ccccc2)[C@]2(O)C[C@H](OC(=O)[C@H](OC(=O)[C@H](F)CCCN(C)C)[C@@H](NC(=O)OC(C)(C)C)c3ccccc3)C(C)=C1C2(C)C.Cl [Compound 35, 2′-O-[5-(N,N-dimethyl)amino-2(R)-fluorovaleryl]cabazitaxel hydrochloride]							Tumor volume (mm^3) (D0) ([1]; D0 (baseline at grouping)): 112.9 ± 4.4 mm^3; Weight change (%) D6 ([1]; D6): −16.6%; T/C (%) D20 ([1]; D20): −28%; Tumor inhibitory percent (%) D20 ([1]; D20): 64%; Tumor volume (mm^3) (D20) ([1]; D20): 55.3 ± 13.8 mm^3
CC(C)c1cccc(C(C)C)c1OC(=O)C(F)CCCCCC(=O)[O-].CC(C)c1cccc(C(C)C)c1OC(=O)C(F)CCCCCC(=O)[O-].[Ca+2] (racemic) [Compound F4, di[propofol 7-carboxyl-2(R,S)-fluorocaprylate] calcium salt]	48.3	61.7	63.8				
CO[C@H]1C(=O)[C@]2(C)[C@@H](OC)C[C@H]3OC[C@@]3(OC(C)=O)[C@H]2[C@H](OC(=O)c2ccccc2)[C@]2(O)C[C@H](OC(=O)[C@H](OC(=O)[C@@H](CCN(C)C)C(F)(F)F)[C@@H](NC(=O)OC(C)(C)C)c3ccccc3)C(C)=C1C2(C)C.CS(=O)(=O)O [Compound 33, 2′-O-[4-(N,N-dimethyl)amino-2(R)-2-trifluoromethylbutyryl]cabazitaxel methanesulfonate]							T/C (%) D20 ([1]; D20): −46%
CC(C)c1cccc(C(C)C)c1OC(=O)[C@@H](F)CCCN(C)Cc1ccccc1.Cl [Compound E5, propofol 5-(N-methyl-N-benzyl)amino-2(S)-2-fluorovalerate hydrochloride]				48.4	69.7	72.3	dissociation percent ([3]; 15 s): 97.3%
CC(=O)O[C@H]1C(=O)[C@@]2(C)[C@H]([C@H](OC(=O)c3ccccc3)[C@]3(O)C[C@H](OC(=O)[C@H](OC(=O)C(F)CCN(C)C)[C@@H](NC(=O)c4ccccc4)c4ccccc4)C(C)=C1C3(C)C)[C@]1(OC(C)=O)CO[C@@H]1C[C@@H]2O.CS(=O)(=O)O (stereo partly drawn) [Compound C3, 2′-O-[4-(N,N-dimethyl)amino-2(R,S)-fluorobutyryl]paclitaxel methanesulfonate]							dissociation percent ([4]; 2 min): 63.7%; dissociation percent ([4]; 5 min): 96.8%; dissociation percent ([4]; 10 min): 100%; dissociation percent ([5]; 5 min): 76.5%; dissociation percent ([5]; 20 min): 94.6%; dissociation percent ([5]; 60 min): 100%; Weight change (%) D4 ([6]; D4): −6.0%; T/C (%) D22 ([6]; D22): −64%; Tumor volume (D22) ([6]; D22): 50.6 ± 9.7 mm^3; Tumor inhibitory percent (%) D22 ([6]; D22, P=0.000 compared to the control): 165%
CC(C)NCC(CF)C(=O)Oc1c(C(C)C)cccc1C(C)C.CS(=O)(=O)O (racemic) [Compound E6, propofol 3-(N-isopropyl)amino-2(R,S)-2-monofluoromethylpropionate methanesulfonate]				27.1	44.3	24.2	dissociation percent ([3]; 15 s): 40.1%
CC(C)c1cccc(C(C)C)c1OC(=O)C(F)CCN(C)C.Cl (racemic) [Compound E1, Propofol 4-(N,N-dimethyl)amino-2(R,S)-fluorobutyrate Hydrochloride]				67.5	85.5	75.1	dissociation percent ([3]; 15 s): 83.2%; dissociation percent ([3]; 30 s): 96.7%
CC(C)c1cccc(C(C)C)c1OC(=O)C(CCC(=O)[O-])C(F)(F)F.[Li+] [Compound F3, propofol 4-carboxyl-2(R)-2-trifluoromethyl valerate lithium salt]	28.4	47.9	47.4				
CCN(C)CCC(F)C(=O)Oc1c(C(C)C)cccc1C(C)C.Cl (racemic) [Compound E4, propofol 4-(N-methyl-N-ethyl)amino-2(R,S)-2-fluorobutyrate hydrochloride]				58.3	70.4	70.2	
CC(C)c1cccc(C(C)C)c1OC(=O)[C@@H](CCOP(=O)([O-])[O-])C(F)(F)F.[Li+].[Li+] [Compound G3, {1-[4-(2,6-diisopropylphenoxy)-4-oxo-3-(R)-3-trifluoromethyl-1-butyl]} phosphate monoester dilithium salt]							Sampling time/dissociation percent (%) 15 S [2]: 21.7%; Sampling time/dissociation percent (%) 30 S [2]: 43.6%; Sampling time/dissociation percent (%) 5 S ([3]; formula G derivatives): 38.7%
CC(C)c1cccc(C(C)C)c1OC(=O)C(CF)CP(=O)([O-])[O-].CC(C)c1cccc(C(C)C)c1OC(=O)C(CF)CP(=O)([O-])[O-].CC(C)c1cccc(C(C)C)c1OC(=O)C(CF)CP(=O)([O-])[O-].[Al+3].[Al+3] (racemic) [Compound G6, tri[propofol 3-phosphoryl-2(R,S)-2-monofluoromethylpropionate] dialuminum salt]							Sampling time/dissociation percent (%) 15 S [2]: 27.1%; Sampling time/dissociation percent (%) 30 S [2]: 44.3%; Sampling time/dissociation percent (%) 5 S ([3]; formula G derivatives): 22.1%; Sampling time/dissociation percent (%) 15 S ([3]; formula G derivatives): 39.7%
CC(C)c1cccc(C(C)C)c1OC(=O)C(F)CCOP(=O)([O-])[O-].[K+].[K+] (racemic) [Compound G1, {1-[4-(2,6-diisopropylphenoxy)-4-oxo-3-(R,S)-3-fluoro-1-butyl]} phosphate monoester dipotassium salt]							Sampling time/dissociation percent (%) 15 S [2]: 43.7%; Sampling time/dissociation percent (%) 30 S [2]: 68.7%; Sampling time/dissociation percent (%) 5 S ([3]; formula G derivatives): 54.1%; Sampling time/dissociation percent (%) 15 S ([3]; formula G derivatives): 67.4%; Sampling time/dissociation percent (%) 30 S ([3]; formula G derivatives, sampling time 30 s): 86.9%
CC(C)c1cccc(C(C)C)c1OC(=O)C(CF)CCCCCCC(=O)[O-].CC(C)c1cccc(C(C)C)c1OC(=O)C(CF)CCCCCCC(=O)[O-].CC(C)c1cccc(C(C)C)c1OC(=O)C(CF)CCCCCCC(=O)[O-].[Al+3] (racemic) [Compound F6, tri[propofol 8-carboxyl-2(R,S)-monofluoromethylpelargonate] aluminum salt]	37.1	58.3	34.2				Sampling time/dissociation percent (%) 15 s ([3]; formula F derivatives): 55.7%
CC(C)c1cccc(C(C)C)c1OC(=O)[C@H](F)CCN1CCCC1.Cl [Compound E8, propofol 4-(pyrrolidin-1-yl)-2(R)-2-fluorobutyrate hydrochloride]				91.1	98.2	95.6	
CC(C)c1cccc(C(C)C)c1OC(=O)C(F)CCCC(=O)[O-].CC(C)c1cccc(C(C)C)c1OC(=O)C(F)CCCC(=O)[O-].[Zn+2] [Compound F5, di[propofol 5-carboxyl-2(S)-fluorohexanoate] zinc salt]	34.9	58.8	63.2				Sampling time/dissociation percent (%) 15 s ([3]; formula F derivatives): 80.3%
CC(C)c1cccc(C(C)C)c1OC(=O)[C@@H](F)CCN1CC1.Cl [Compound E7, propofol 4-N-(aziridin-1-yl)-2(S)-2-fluorobutyrate hydrochloride]				89.4	94.4	92.3	
